The results in this text go back to patent US8759301B2, “Gene fusion targeted therapy” (The Regents of The University of Michigan, priority 2010, dated 2014).

For data set [1], the system named is TMPRSS2 and ERG loci in LNCaP cells.
The subject of data set [2] is TMPRSS2 and ERG loci in DU145 cells.
Data set [3] has as its system TMPRSS2-ERG fusion transcript in LNCaP cells. Particulars: DHT 10 nM, 12 hours. How it is done: It was investigated whether stimulation with androgen (e.g. DHT) could create gene fusions by coupling androgen stimulation with an agent that causes DNA double strand breaks. LNCaP cells were hormone depleted, followed by stimulation with DHT (10 nM, 12 hours), irradiation (1 or 3 Gy) and clonal expansion of single cells in 96 well plates using flow sorting. The presence of the TMPRSS2-ERG fusion transcript was determined using quantitative reverse-transcription PCR (QRT-PCR) with both SYBR green and TaqMan assays spanning the chimeric region.

Data set [4] deals with T1, ETS domain stretch RALRYYYDK (Arg367 to Lys375 in ERG), R367→K (Homo sapiens, UniProt P11308, R367K).
T1 construct: used a series of overlapping 19 amino acids segments of ETS domain; made in house
T1 sequence (P11308 311-391 R367K): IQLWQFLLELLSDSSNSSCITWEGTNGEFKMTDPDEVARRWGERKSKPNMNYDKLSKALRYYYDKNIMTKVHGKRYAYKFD
In kind it is binding. The source says:
Interactive phage clones were sequenced and analyzed using bioinformatics approaches to identify consensus peptide sequence. […] The domains within ERG that mediate the binding of isolated phage clones were mapped using a panel of ERG deletion mutants expressed as HaloTag fusion protein. A total of 6 domains, namely N-term, ETS, CAE, PNT, CD, and CTD (Carrere et al., Oncogene, 1998. 16(25): p. 3261-8), were cloned and expressed in TNT SP6 wheat germ system. Without purification, the expression reactions were coated on HaloLink Array system and incubated with individual phage clones. The interaction signal was detected by Cy3-labled anti-M13 antibody, which is specifically directed against the phage capsid protein (FIG. 28). […] Further mapping studies used a series of overlapping 19 amino acids segments of ETS domain specifically localized the binding site to a 9 amino-acids conserved stretch […] (SEQ ID NO. 1) corresponding to the residues Arg^367 to Lys^375 in ERG (FIG. 29). The conserved region of the amino acids specifically involved in peptide binding was then located.

The subject of data set [5] is RWPE-1 cells transduced with ERG adenovirus. In words: ERG-mediated invasion of RWPE-1 cells transduced with ERG adenovirus. To be noted: TAT-tagged peptides, 2 μM, 48 hours, RWPE-1 with ERG adenovirus. The data set is classed as cell-based. How it is done: (§1) Invaded cells were stained with crystal violet and photographed.
To investigate the ability of ERG-binding peptides to block ERG-mediated invasion, the prostate cell lines RWPE-1 transduced with ERG or LACZ adenovirus were incubated with TAT-tagged peptides. […] The relative number of invaded cells was also quantified by colorimetric assays.

For the next data set, the system named is DU145. As to the kind of experiment: Cell invasion with TAT-peptides, DU145. The data set is classed as cell-based. Particulars: FIG. 39.
Excerpt: as §1

Data set [6] relates to VCaP. In words: Cell proliferation with TAT-peptide, VCaP. In kind it is cell-based. Particulars: FIG. 40. An excerpt:
Standard cell proliferation and apoptosis assays (Chinnaiyan et al., Cell, 1995. 81(4): p. 505-12; Chinnaiyan et al., Proc Natl Acad Sci USA, 2000. 97(4): p. 1754-9; Varambally et al., Nature, 2002. 419(6907): p. 624-9) are used to assess the inhibitory role of peptides in prostate cell proliferation driven by TMPRSS2:ETS fusions, using both the over-expression series and stable-knockdown series.

The target of the next data set is T2, AR binding to ETS domain (Homo sapiens, UniProt P11308).
T2 sequence (P11308 311-391 limits assumed): T1 sequence (P11308 311-391 R367K) with K57R

The test system of data set [7] is VCaP. In words: Cell invasion with TAT-peptides, VCaP. To be noted: FIG. 39.
Method: (§2) Briefly, equal numbers of the indicated cells were seeded onto the basement membrane matrix (EC matrix, Chemicon) present in the insert of a 24-well culture plate, with fetal bovine serum added to the lower chamber as a chemoattractant. After 48 h, non-invading cells and the EC matrix were removed by a cotton swab. Invaded cells were stained with crystal violet and photographed. The inserts were treated with 10% acetic acid and absorbance was measured at 560 nm.
Another data set has as its target T3, ERG (Homo sapiens, UniProt P11308).
T3 sequence (P11308 1-479): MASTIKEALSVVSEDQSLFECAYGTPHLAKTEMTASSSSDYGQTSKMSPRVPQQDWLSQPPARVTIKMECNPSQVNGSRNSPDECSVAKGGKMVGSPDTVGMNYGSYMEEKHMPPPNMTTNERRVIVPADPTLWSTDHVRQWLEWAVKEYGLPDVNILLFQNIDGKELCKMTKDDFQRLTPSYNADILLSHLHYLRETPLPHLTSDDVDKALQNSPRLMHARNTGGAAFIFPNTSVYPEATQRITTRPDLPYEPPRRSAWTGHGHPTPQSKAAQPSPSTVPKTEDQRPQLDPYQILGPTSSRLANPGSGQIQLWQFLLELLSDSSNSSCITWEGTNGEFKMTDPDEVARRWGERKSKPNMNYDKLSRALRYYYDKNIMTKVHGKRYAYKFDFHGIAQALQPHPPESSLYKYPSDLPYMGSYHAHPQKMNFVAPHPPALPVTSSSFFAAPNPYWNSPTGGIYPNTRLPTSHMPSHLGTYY

The subject of data set [8] is VCaP.
Method: as §2
Data set [9] has as its system VCaP. As to the kind of experiment: DNA damage in VCaP with TAT peptides. In kind it is cell-based. Particulars: FIG. 42.
Data set [10] deals with TMPRSS2-ERG and wild-type ERG transcripts. The data set is classed as cell-based. How it is done: All PCR experiments were performed in triplicates.

Changes are numbered by the printed parent chain. Read-outs that look alike come from different tables or passages of the source. Where a SMILES comes first, the peptide text is derived from it.

Method for AR binding to ETS domain: Beads were eluted by SDS loading buffer and blotted with anti-GST mAb specifically against GST-AR (FIG. 30).
The cDNAs and fragments are cloned into pFN19A vector per manufacturer's protocol. In vitro translated proteins are generated by a wheat germ expression system (Promega) and immobilized onto HaloLink magnetic beads. After washing, the conjugated beads are incubated with GST-AR fusion proteins in the presence or absence of peptides. The bound proteins are analyzed by SDS-PAGE and blotted with anti-GST mAb (Sigma).

In the case of `C[C@]12CCC(=O)C[C@@H]1CC[C@@H]1[C@@H]2CC[C@]2(C)[C@@H](O)CC[C@@H]12` [DHT, Dihydrotestosterone], the “proximity between the TMPRSS2 and ERG loci” value in [1] is given as “induced proximity”. In addition, in data set [2], the “proximity between TMPRSS2 and ERG” value is recorded as “not observed”. The “clones harboring TMPRSS2-ERG fusion transcripts” value was 2.3% in data set [3] (then 1 Gy irradiation) and 25% in data set [3] (then 3 Gy irradiation).

As to `CC(C)C[C@H](NC(=O)[C@H](CO)NC(=O)CNC(=O)[C@H](Cc1ccccc1)NC(=O)[C@H](CO)NC(=O)[C@@H](N)CC(C)C)C(=O)N1CCC[C@H]1C(=O)O` [LSFGSLP] (H-LSFGSLP-OH), the “phage peptide binding after single amino acid substitution R367→K” value in [4] is listed as “completely abolished”.

Regarding LPPYLFT, the ERG-driven invasion result in [5] was “blocked”.

With “TAT-LPPYLFT: TAT linked to LPPYLFT (SEQ ID NO: 45) (not fully specified; left off: small tags and cut ends)”, the DU145 invasion result in the data set with DU145 is on record as “not”. The VCaP proliferation entry in the data set on VCaP [6] is on record as “inhibited”. Further, in the data set with AR binding to ETS domain, the “ERG interactome (through ETS domain)” value was “blocked”. The VCaP invasion result in the data set with VCaP [7] is on record as “inhibit”. For the same compound, the ERG transcription activities entry in the data set with ERG is recorded as “blocked”. The “cell invasion driven by ERG” value with VCaP [8] is listed as “attenuated”.

Turning to “TAT-LSFGSLP: TAT linked to LSFGSLP (SEQ ID NO: 2) (not fully specified; left off: small tags and cut ends)”, in the data set with DU145, the DU145 invasion entry is listed as “not”. For the same compound, in the data set with VCaP [6], the VCaP proliferation result is recorded as “inhibits”. In addition, the “ERG interactome (through ETS domain)” value with AR binding to ETS domain is given as “blocked”. The VCaP invasion entry in the data set with VCaP [7] is reported as “inhibit”. For the same compound, the ERG transcription activities result with ERG is “blocked”. Also, the “cell invasion driven by ERG” value in the data set with VCaP [8] is recorded as “attenuated”. Moreover, the “DNA damage in VCaP” value in the data set with VCaP [9] is “inhibit”.

For the compound “UGG UCA GAG AGA AGC AAU A [wild-type ERG siRNA]”, the TMPRSS2-ERG expression result in [10] is on record as “did not affect”.
